Source: PMC12186844 (ACS Chemical Neuroscience, 2025)
Where two headings read alike, the source gives them in different places.

Legend:
SNAP-D2SR S121^3.39A [1] = target: T1, SNAP-D2SR S121^3.39A (Homo sapiens, UniProt P14416, S121A); assay: functional cAMP assay, BRET biosensor; assay type: cell-based
T1 sequence (P14416 1-414 isoform P14416-2 S121A): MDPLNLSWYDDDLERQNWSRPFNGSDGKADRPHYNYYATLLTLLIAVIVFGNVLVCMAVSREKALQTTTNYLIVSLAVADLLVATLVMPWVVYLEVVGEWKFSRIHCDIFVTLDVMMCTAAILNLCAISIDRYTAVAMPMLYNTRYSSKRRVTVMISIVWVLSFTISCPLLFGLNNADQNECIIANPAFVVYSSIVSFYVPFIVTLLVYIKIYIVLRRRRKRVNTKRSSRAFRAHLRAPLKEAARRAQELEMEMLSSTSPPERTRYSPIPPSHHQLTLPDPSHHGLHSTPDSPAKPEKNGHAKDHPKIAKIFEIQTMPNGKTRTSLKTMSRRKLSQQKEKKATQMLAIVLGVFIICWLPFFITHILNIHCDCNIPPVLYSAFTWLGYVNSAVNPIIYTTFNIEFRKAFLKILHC
Description: (§1) Flp-In-CHO cells stably coexpressing the CAMYEL biosensor and DRs were plated into white 96-well CulturPlates (Revvity) and grown overnight. The cells were equilibrated in Hank’s balanced salt solution (HBSS) at 37 °C (or 25 °C when indicated) before starting the experiment. The cells were costimulated with the agonists and 10 μM forskolin for the indicated time frames when the BRET readings were captured. Coelenterazine (Nanolight Technology, AZ) was added at a final concentration of 5 μM at least 3 min prior to measurement. […] Net BRET was determined by subtraction of the vehicle control coadded with 10 μM forskolin.
(§2) Dose–response curves were fitted using the following three-parameter equation: response=bottom+top−bottom/1+10^(logEC50−log[A]) 5 where top and bottom represent the maximal and minimal asymptote of the dose response curve, [A] is the molar concentration of the agonist, and EC50 is the molar concentration of the agonist required to give a response half-way between bottom and top.

SNAP-D2SR F50^1.48A = SNAP-D2SR F50^1.48A (Homo sapiens, UniProt P14416, F50A); assay: cell membrane [3H]spiperone assay
SNAP-D2SR F50^1.48A, sequence (P14416 1-414 isoform P14416-2 F50A): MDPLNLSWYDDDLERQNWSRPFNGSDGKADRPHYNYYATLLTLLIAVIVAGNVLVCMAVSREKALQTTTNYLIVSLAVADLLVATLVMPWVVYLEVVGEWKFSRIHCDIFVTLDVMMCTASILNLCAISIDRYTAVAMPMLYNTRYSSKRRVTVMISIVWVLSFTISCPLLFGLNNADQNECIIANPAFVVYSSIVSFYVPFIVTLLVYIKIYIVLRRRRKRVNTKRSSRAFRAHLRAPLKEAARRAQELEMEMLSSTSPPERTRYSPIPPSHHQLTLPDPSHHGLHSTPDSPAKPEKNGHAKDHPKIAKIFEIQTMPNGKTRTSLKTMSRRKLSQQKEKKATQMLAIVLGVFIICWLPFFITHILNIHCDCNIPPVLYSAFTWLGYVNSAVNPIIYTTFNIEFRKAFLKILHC
Description: (§3) Flp-In-CHO cells stably expressing the wild-type or mutant DRs were grown to 90% confluence in 175 cm^2 cell culture flasks. The cells were harvested in PBS containing 2 mM EDTA and centrifuged at 300g for 3 min. The resulting pellet was resuspended in ice-cold assay buffer (20 mM HEPES, 100 mM NaCl, 6 mM MgCl2, 1 mM EGTA, and 1 mM EDTA, pH 7.4), and the centrifugation step was repeated. The intact cell pellet was then resuspended in assay buffer and homogenized using a Polytron homogenizer. After centrifugation (1000g, 10 min), the pellet was discarded, and the supernatant was recentrifuged at 30,000g for 1 h at 4 °C using a Sorvall Evolution RC ultracentrifuge (Thermo Scientific). The resulting pellet was resuspended in assay buffer and stored in 250 μL aliquots at −80 °C. Membrane protein concentration was determined using a Pierce’s BCA protein assay kit (Thermo Fisher, Melbourne).
(§4) [^3H]­Spiperone binding experiments using cell membranes were conducted in a 200 μL reaction volume in assay buffer (20 mM HEPES, 100 mM NaCl, 6 mM MgCl2, 1 mM EGTA, and 1 mM EDTA, pH 7.4) containing 100 μM GppNHp and 0.1% ascorbic acid in 96-well plates. […] In all cases, nonspecific binding was determined in the presence of 10 μM haloperidol. To obtain affinity estimates of unlabeled agonists, competition binding experiments were performed at equilibrium. […] After this incubation period, bound and free radioligands were separated by fast-flow filtration through UniFilter-96 GF/B plates using a MicroBeta FilterMate harvester (Revvity) followed by three washes with ice-cold 0.9% NaCl. Filter bound radioactivity was detected as a chemiluminescence after the addition of MicroScint-20 (Revvity) in a MicroBeta plate counter (Revvity).
(§5) IC50 values obtained from the inhibition curves were converted to Ki values using the Cheng and Prusoff equation.

D2LR [2] = target: T2, D2LR (Homo sapiens, UniProt P14416); assay: cell membrane [3H]raclopride binding assay; settings: for Logα_DA / α′_DA: cooperativity with DA
T2 sequence (P14416 whole entry): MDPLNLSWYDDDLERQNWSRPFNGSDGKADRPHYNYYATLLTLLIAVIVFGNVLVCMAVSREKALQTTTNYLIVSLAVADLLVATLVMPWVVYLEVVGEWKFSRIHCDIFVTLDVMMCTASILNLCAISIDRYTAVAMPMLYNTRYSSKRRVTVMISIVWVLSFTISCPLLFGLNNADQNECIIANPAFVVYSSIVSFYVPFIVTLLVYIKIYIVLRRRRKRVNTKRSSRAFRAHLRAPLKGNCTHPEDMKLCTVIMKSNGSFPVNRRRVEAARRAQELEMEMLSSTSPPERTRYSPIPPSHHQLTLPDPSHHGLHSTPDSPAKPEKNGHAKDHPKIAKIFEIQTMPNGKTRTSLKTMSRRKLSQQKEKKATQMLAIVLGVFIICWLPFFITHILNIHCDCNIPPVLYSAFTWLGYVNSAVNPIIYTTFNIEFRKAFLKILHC

SNAP-D2SR WT = SNAP-D2SR WT (Homo sapiens, UniProt P14416); assay: cell membrane [3H]spiperone assay
SNAP-D2SR WT, sequence (P14416 1-414 isoform P14416-2): as the sequence (P14416 1-414 isoform P14416-2 F50A) above, with A50F counted along it
Description: as §3, §4, §5

SNAP-D2SR N393^7.49A = SNAP-D2SR N393^7.49A (Homo sapiens, UniProt P14416, N422A); assay: cell membrane [3H]spiperone assay
SNAP-D2SR N393^7.49A, sequence (P14416 1-414 isoform P14416-2 N393A): as the sequence (P14416 1-414 isoform P14416-2 F50A) above, with A50F, N393A counted along it
Description: as §3
(§6) [^3H]­Spiperone binding experiments using cell membranes were conducted in a 200 μL reaction volume in assay buffer (20 mM HEPES, 100 mM NaCl, 6 mM MgCl2, 1 mM EGTA, and 1 mM EDTA, pH 7.4) containing 100 μM GppNHp and 0.1% ascorbic acid in 96-well plates. […] In all cases, nonspecific binding was determined in the presence of 10 μM haloperidol. […] Filter bound radioactivity was detected as a chemiluminescence after the addition of MicroScint-20 (Revvity) in a MicroBeta plate counter (Revvity). […]

D2LR [3] = target: T2, D2LR; assay: ERK1/2 phosphorylation assay; assay type: cell-based; settings: pERK1/2
Description: Flp-In-CHO cells stably expressing the D2LR were seeded into 96-well plates at a density of 50,000 cells/well. After 5 h, cells were washed with phosphate-buffered saline (PBS) and incubated in serum-free DMEM overnight before assaying. […] Stimulation of the cells was terminated by removing the medium followed by the addition of 100 μL of SureFire lysis buffer (PerkinElmer) to each well. The plate was shaken for 5 min at RT before 5 μL of the lysates was transferred to a white 384-well ProxiPlate (PerkinElmer). Then, 8 μL of a 240:1440:7:7 mixture of Surefire activation buffer:Surefire reaction buffer:AlphaScreen acceptor beads:AlphaScreen donor beads was added to the samples and incubated in the dark at 37 °C for 1.5 h. Plates were read using a Fusion plate reader.

SNAP-D2SR L94^2.64A = SNAP-D2SR L94^2.64A (Homo sapiens, UniProt P14416, L94A); assay: functional cAMP assay, BRET biosensor; assay type: cell-based
SNAP-D2SR L94^2.64A, sequence (P14416 1-414 isoform P14416-2 L94A): as the sequence (P14416 1-414 isoform P14416-2 F50A) above, with A50F, L94A counted along it
Description: (§7) Flp-In-CHO cells stably coexpressing the CAMYEL biosensor and DRs were plated into white 96-well CulturPlates (Revvity) and grown overnight. The cells were equilibrated in Hank’s balanced salt solution (HBSS) at 37 °C (or 25 °C when indicated) before starting the experiment. The cells were costimulated with the agonists and 10 μM forskolin for the indicated time frames when the BRET readings were captured. Coelenterazine (Nanolight Technology, AZ) was added at a final concentration of 5 μM at least 3 min prior to measurement. […] Net BRET was determined by subtraction of the vehicle control coadded with 10 μM forskolin. For phenoxybenzamine alkylation experiments, the cells were treated with 0.1, 0.3, or 1 μM phenoxybenzamine (Sigma-Aldrich) diluted in HBSS and equilibrated at 37 °C for 30 min prior to the commencement of the assay.
as §2

SNAP-D2SR F408^8.54A = SNAP-D2SR F408^8.54A (Homo sapiens, UniProt P14416, F437A); assay: cell membrane [3H]spiperone assay
SNAP-D2SR F408^8.54A, sequence (P14416 1-414 isoform P14416-2 F408A): as the sequence (P14416 1-414 isoform P14416-2 F50A) above, with A50F, F408A counted along it
Description: as §3, §6

SNAP-D2SR I73^2.43A = SNAP-D2SR I73^2.43A (Homo sapiens, UniProt P14416, I73A); assay: cell membrane [3H]spiperone assay
SNAP-D2SR I73^2.43A, sequence (P14416 1-414 isoform P14416-2 I73A): as the sequence (P14416 1-414 isoform P14416-2 F50A) above, with A50F, I73A counted along it
Description: as §3, §6

SNAP-D2SR L76^2.46A = SNAP-D2SR L76^2.46A (Homo sapiens, UniProt P14416, L76A); assay: functional cAMP assay, BRET biosensor; assay type: cell-based
SNAP-D2SR L76^2.46A, sequence (P14416 1-414 isoform P14416-2 L76A): as the sequence (P14416 1-414 isoform P14416-2 F50A) above, with A50F, L76A counted along it
Description: as §1, §2

SNAP-D2SR S121^3.39A [4] = target: T1, SNAP-D2SR S121^3.39A; assay: cell membrane [3H]spiperone assay
Description: as §3, §6

SNAP-D2SR V91^2.61A = SNAP-D2SR V91^2.61A (Homo sapiens, UniProt P14416, V91A); assay: functional cAMP assay, BRET biosensor; assay type: cell-based
SNAP-D2SR V91^2.61A, sequence (P14416 1-414 isoform P14416-2 V91A): as the sequence (P14416 1-414 isoform P14416-2 F50A) above, with A50F, V91A counted along it
Description: as §7, §2

SNAP-D2SR L54^1.52A = SNAP-D2SR L54^1.52A (Homo sapiens, UniProt P14416, L54A); assay: cell membrane [3H]spiperone assay
SNAP-D2SR L54^1.52A, sequence (P14416 1-414 isoform P14416-2 L54A): as the sequence (P14416 1-414 isoform P14416-2 F50A) above, with A50F, L54A counted along it
Description: as §3, §6

D3R = D3R (Homo sapiens, UniProt P35462); assay: cell membrane [3H]raclopride binding assay
D3R, sequence (P35462 whole entry): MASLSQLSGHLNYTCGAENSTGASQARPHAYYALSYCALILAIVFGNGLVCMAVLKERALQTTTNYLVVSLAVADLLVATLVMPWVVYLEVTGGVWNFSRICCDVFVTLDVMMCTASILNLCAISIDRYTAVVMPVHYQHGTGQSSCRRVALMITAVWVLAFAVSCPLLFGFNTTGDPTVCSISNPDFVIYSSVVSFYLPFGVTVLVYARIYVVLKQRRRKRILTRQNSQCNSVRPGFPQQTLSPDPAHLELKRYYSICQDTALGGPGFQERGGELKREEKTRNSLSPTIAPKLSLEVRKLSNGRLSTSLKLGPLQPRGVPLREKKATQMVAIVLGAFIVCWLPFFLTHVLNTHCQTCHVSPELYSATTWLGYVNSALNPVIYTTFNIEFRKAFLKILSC
Description: as §3, §4

[5] = system: 6-OHDA contralateral turning model; settings: with subeffective dose of L-DOPA; earlier report, reference number not given; cited from earlier work
[6] = read-out: D2 PAM2 KB (converted)
[7] = [3H]spiperone competition binding interaction experiment
[8] = +0.1 mM GppNHp, cooperativity with [3H]raclopride
[9] = +PTX, cooperativity with [3H]raclopride
[10] = +urea, cooperativity with [3H]raclopride

COc1cc(CO)c(F)cc1C(=O)n1ccc2c(F)cccc21 [D2 PAM2, [5-fluoro-4-(hydroxymethyl)-2-methoxyphenyl]-(4-fluoro-1H-indol-1-yl)methanone]
D2 PAM2 log τ (SNAP-D2SR S121^3.39A [1]): –1.18 ± 0.15 | D2 PAM2 pKB (SNAP-D2SR S121^3.39A [1]): 4.83 ± 0.11 | D2 PAM2 τ (SNAP-D2SR S121^3.39A [1]): 0.06 | Kb (SNAP-D2SR S121^3.39A [1]; [6]): 15 µM | D2 PAM2 log αβ (SNAP-D2SR S121^3.39A [1]; with DA): 1.14 ± 0.06 | D2 PAM2 αβ (SNAP-D2SR S121^3.39A [1]; with DA): 14 | pKB (SNAP-D2SR F50^1.48A; [7]): 5.57 ± 0.25 | fold decrease in cooperativity with DA vs WT (SNAP-D2SR F50^1.48A; binding): 5 fold | Kb (SNAP-D2SR F50^1.48A; binding interaction experiment): 3 µM | log α (SNAP-D2SR F50^1.48A; cooperativity with DA, binding): 0.33 ± 0.03 | α (SNAP-D2SR F50^1.48A; cooperativity with DA, binding): 2.1 | fold shift + 10 μM PAM (SNAP-D2SR F50^1.48A; shift of DA IC50): 1.7 fold | ΔpIC50 + 10 μM PAM (SNAP-D2SR F50^1.48A; shift of DA pIC50): 0.22 ± 0.12 | fold lower affinity in cell membranes than in whole cell binding (D2LR [2]): 4 fold | pKB_D2 PAM (D2LR [2]; +0.1 mM GppNHp): 4.65 ± 0.05 | Logα_DA (D2LR [2]; +0.1 mM GppNHp): 1.30 ± 0.02 | α′_DA (D2LR [2]; +0.1 mM GppNHp): 20 | Logα_[3H]raclo (D2LR [2]; [8]): –0.19 ± 0.05 | α_[3H]raclo (D2LR [2]; [8]): 0.65 | Kb (D2LR [2]; +0.1 mM GppNHp, read-out: KB_D2 PAM (converted)): 22.5 µM | pKB_D2 PAM (D2LR [2]; +PTX): 4.54 ± 0.03 | Logα_DA (D2LR [2]; +PTX): 1.22 ± 0.07 | α′_DA (D2LR [2]; +PTX): 17 | Logα_[3H]raclo (D2LR [2]; [9]): –0.37 ± 0.10 | α_[3H]raclo (D2LR [2]; [9]): 0.42 | Kb (D2LR [2]; +PTX, read-out: KB_D2 PAM (converted)): 29 µM | pKB_D2 PAM (D2LR [2]; +urea): 4.53 ± 0.15 | Logα_DA (D2LR [2]; +urea): 1.35 ± 0.12 | α′_DA (D2LR [2]; +urea): 22 | Logα_[3H]raclo (D2LR [2]; [10]): –0.06 ± 0.08 | α_[3H]raclo (D2LR [2]; [10]): 0.87 | Kb (D2LR [2]; +urea, read-out: KB_D2 PAM (converted)): 30 µM | logα_DA (D2LR [2]; D2LR): 1.30 ± 0.02 | logα_[3H]raclo (D2LR [2]; D2LR): -0.19 ± 0.05 | α_DA (D2LR [2]; D2LR): 20 | α_[3H]raclo (D2LR [2]; D2LR): 0.64 | Kb (D2LR [2]; cell membrane preparations, read-out: KB): 22 µM | pKB (SNAP-D2SR WT; [7]): 5.04 ± 0.17 | Kb (SNAP-D2SR WT; binding interaction experiment): 9 µM | log α (SNAP-D2SR WT; cooperativity with DA, binding): 1.05 ± 0.10 | α (SNAP-D2SR WT; cooperativity with DA, binding): 11 | fold shift + 10 μM PAM (SNAP-D2SR WT; shift of DA IC50): 9 fold | ΔpIC50 + 10 μM PAM (SNAP-D2SR WT; shift of DA pIC50): 0.97 ± 0.20 | fold shift + 10 μM PAM (SNAP-D2SR N393^7.49A; shift of DA IC50): 0.8 fold | ΔpIC50 + 10 μM PAM (SNAP-D2SR N393^7.49A; shift of DA pIC50): –0.08 ± 0.10 | pKB (D2LR [3]): 5.36 ± 0.13 | LogτB (D2LR [3]; intrinsic efficacy): 0.18 ± 0.03 | Logαβ (D2LR [3]; with dopamine): 1.37 ± 0.12 | Kb (SNAP-D2SR L94^2.64A): 12.6 µM | Logτ (SNAP-D2SR L94^2.64A): -0.43 ± 0.07 | pKB (SNAP-D2SR L94^2.64A): 4.90 ± 0.12 | τ (SNAP-D2SR L94^2.64A): 0.37 | Logαβ (SNAP-D2SR L94^2.64A; with DA): 1.54 ± 0.10 | αβ (SNAP-D2SR L94^2.64A; with DA): 34.7 | fold shift + 10 μM PAM (SNAP-D2SR F408^8.54A; shift of DA IC50): 0.85 fold | ΔpIC50 + 10 μM PAM (SNAP-D2SR F408^8.54A; shift of DA pIC50): –0.07 ± 0.14 | fold shift + 10 μM PAM (SNAP-D2SR I73^2.43A; shift of DA IC50): 1.5 fold | ΔpIC50 + 10 μM PAM (SNAP-D2SR I73^2.43A; shift of DA pIC50): 0.17 ± 0.09 | D2 PAM2 log τ (SNAP-D2SR L76^2.46A): –3 | D2 PAM2 pKB (SNAP-D2SR L76^2.46A): 5.52 ± 0.31 | fold decrease in cooperativity between D2 PAM2 and DA (SNAP-D2SR L76^2.46A): 5 fold | Kb (SNAP-D2SR L76^2.46A; [6]): 3 µM | D2 PAM2 log αβ (SNAP-D2SR L76^2.46A; with DA): 0.56 ± 0.09 | D2 PAM2 αβ (SNAP-D2SR L76^2.46A; with DA): 3.6 | fold shift + 10 μM PAM (SNAP-D2SR S121^3.39A [4]; shift of DA IC50): 2.6 fold | ΔpIC50 + 10 μM PAM (SNAP-D2SR S121^3.39A [4]; shift of DA pIC50): 0.41 ± 0.18 | Kb (SNAP-D2SR V91^2.61A): 2.6 µM | Logτ (SNAP-D2SR V91^2.61A): -0.23 ± 0.08 | pKB (SNAP-D2SR V91^2.61A): 5.59 ± 0.21 | τ (SNAP-D2SR V91^2.61A): 0.59 | Logαβ (SNAP-D2SR V91^2.61A; with DA): 0.93 ± 0.18 | αβ (SNAP-D2SR V91^2.61A; with DA): 8.5 | fold shift + 10 μM PAM (SNAP-D2SR L54^1.52A; shift of DA IC50): 1.3 fold | ΔpIC50 + 10 μM PAM (SNAP-D2SR L54^1.52A; shift of DA pIC50): 0.10 ± 0.11 | Kb (D3R): 17 µM | logα_DA (D3R): 0.98 ± 0.02 | logα_[3H]raclo (D3R): -0.14 ± 0.04 | pKB (D3R): 4.77 ± 0.14 | α_DA (D3R): 9.5 | α_[3H]raclo (D3R): 0.72 | effect on L-DOPA in a rodent model of Parkinson's disease [5]: potentiate a subeffective dose of L-DOPA
